Where “and” joins values, the source holds several entries; their conditions need not be identical. Equal entries are not always repeated.
Tests used:
NCI/ADR-RES = experiment: NCI-60 screen (SRB), ovarian cancer; settings: Homo sapiens; for CC50: read-out: LC50
ACHN = experiment: NCI-60 screen (SRB), renal cancer; settings: Homo sapiens; for CC50: read-out: LC50
NCI-H322M = experiment: NCI-60 screen (SRB), non-small cell lung cancer; assay type: cell-based; settings: Homo sapiens; for IC50: five-dose screen; for CC50: read-out: LC50
Method: All compounds selected by the US National Cancer Institute (NCI) were initially tested at a single dose (10^−5 M) on the full panel of 60 cancer cell lines represented by leukemia, melanoma, lung, colon, central nervous system (CNS), ovarian, kidney, prostate and breast cancer. Only compounds that were able to satisfy the predetermined inhibition criteria against a minimum number of cell lines proceeded to five-dose assays ([…], 0.1 and 0.01 μM).
In these studies, human cancer cell lines were cultured in a RPMI-1640 medium containing 5% fetal bovine serum and 2 mM of L-glutamine. Following the protocol for a typical assay, cells were inoculated into 96-well plates and incubated at 37 °C, 5% CO2, 95% air, and 100% relative humidity for 24 h prior to the addition of the compounds to be tested. After 24 h, two plates of each cell line were fixed in situ with trichloroacetic acid (TCA) to represent a measure of the cell population for each cell line at the time of sample addition (Tz). Compounds were dissolved in DMSO to 400-fold the maximum desired concentration for analysis and subsequently diluted to twice the maximum desired concentration with medium containing 50 μg/mL gentamicin. An additional series of four dilutions at 10-fold concentration was performed to provide a total of five concentrations of the compound plus the control. Aliquots of 100 μL of these dilutions were taken and added to 96-well plates already containing 100 μL of the medium, resulting in the final required concentrations of the sample. The plates were incubated for 48 h at the same conditions. For adherent cells, the assay was terminated with the addition of cold TCA. Cells were fixed in situ by the slow addition of 50 μL of 50% (w/v) cold ATC (final concentration, 10% TCA) and incubated for 60 min at 4 °C. The supernatant was discarded, and the plates were washed five times with tap water and air dried. A quantity of 100 μL of 0.4% (w/v) sulforhodamine B (SRB) solution in 1% acetic acid was added to each well, and each plate was incubated for 10 min at room temperature. Upon completion of staining, unbound pigment was removed by five washes with 1% acetic acid and the plates were air-dried. The stains were solubilized with 10 mM Trizma base and absorbance was recorded on an automated plate reader at a wavelength of 515 nm. Using the absorbance measurements [time zero (Tz), growth control in the absence of the sample and growth test in the presence of the sample at the five concentration levels (Ti)], the percent growth was calculated for each sample at the concentration levels. The percent growth was calculated as: [(Ti − Tz)/(C − Tz)] × 100 for concentrations for which Ti > Tz, and [(Ti − Tz)/Tz] × 100 for concentrations for which Ti < Tz. Two dose-response parameters were calculated for each compound. The 50% growth inhibition (GI50) was calculated from [(Ti − Tz)/(C − Tz)] × 100 = 50, which is the sample concentration at which the net increase in protein is 50% lower in treated cells (as measured by SRB staining) compared to the net increase in protein seen in control cells and the LC50 (sample concentration at which a 50% reduction in protein measured at the end of treatment compared to the beginning), indicating a net loss of cells; calculated from [(Ti − Tz)/Tz] × 100 = −50. Values were calculated for each of these two parameters if the activity level was reached; however, if the effect was not reached or was exceeded, the value for that parameter was expressed as greater or less than the maximum or minimum of the concentration tested.

SR = experiment: NCI-60 screen (SRB), leukemia; settings: for IC50 / CC50: Homo sapiens; for CC50: read-out: LC50
SK-MEL-28 = experiment: NCI-60 screen (SRB), melanoma; settings: Homo sapiens; for IC50: SK-MEL-28; for CC50: SK-MEL-28, read-out: LC50
HCT-15 = experiment: NCI-60 screen (SRB), colon cancer; settings: for IC50 / CC50: Homo sapiens; for IC50: HCT-15; for CC50: HCT-15, read-out: LC50
UACC-62 = experiment: NCI-60 screen (SRB), melanoma; settings: Homo sapiens; for IC50: UACC-62; for CC50: UACC-62, read-out: LC50
leukemia cell lines = experiment: NCI-60 screen (SRB), leukemia panel; assay type: cell-based; settings: Homo sapiens; for inhibition at 10 µM: leukemia panel, single dose 10 μM, read-out: GI (growth inhibition), range over panel
MCF7 = experiment: NCI-60 screen (SRB), breast cancer; settings: Homo sapiens; for IC50: MCF7; for CC50: MCF7, read-out: LC50
HS 578T = experiment: NCI-60 screen (SRB), breast cancer; settings: for IC50 / CC50: Homo sapiens, Hs-578T; for CC50: read-out: LC50
HL-60(TB) = experiment: cells; settings: Homo sapiens; for IC50: HL-60; for CC50: HL-60, read-out: LC50
OVCAR-8 = experiment: NCI-60 screen (SRB), ovarian cancer; settings: Homo sapiens; for IC50: OVCAR-8; for CC50: OVCAR-8, read-out: LC50
A498 = experiment: NCI-60 screen (SRB), renal cancer; settings: Homo sapiens; for IC50: A498; for CC50: A498, read-out: LC50
breast cancer cell lines = experiment: NCI-60 screen (SRB), breast cancer panel; assay type: cell-based; settings: Homo sapiens, single dose 10 μM, read-out: GI (growth inhibition), range over panel
PC-3 = experiment: NCI-60 screen (SRB), prostate cancer; settings: Homo sapiens; for IC50: PC-3; for CC50: PC-3, read-out: LC50
TK-10 = experiment: NCI-60 screen (SRB), renal cancer; settings: Homo sapiens; for IC50: TK-10; for CC50: TK-10, read-out: LC50
HCC-2998 = experiment: NCI-60 screen (SRB), colon cancer; settings: for IC50 / CC50: Homo sapiens; for IC50: HCC 2998; for CC50: HCC 2998, read-out: LC50
[1] = tested on: 60 human cancer cell lines; experiment: NCI-60 screen (SRB), whole panel; assay type: cell-based; settings: for IC50 / inhibition at 10 µM: Homo sapiens; for IC50: five-dose screen, read-out: IC50 values against most cell lines (range); for inhibition at 10 µM: read-out: Mean growth inhibition (GI) percentage
SK-OV-3 = experiment: NCI-60 screen (SRB), ovarian cancer; settings: Homo sapiens; for IC50: SK-OV-3; for CC50: SK-OV-3, read-out: LC50
[2] = single dose 10 μM, mean over 60 cell lines, over 100% = cell death

| Structure (SMILES) | IC50 (NCI/ADR-RES) | CC50 (NCI/ADR-RES) | IC50 (ACHN) | CC50 (ACHN) | IC50 (NCI-H322M) | CC50 (NCI-H322M) | IC50 (SR) | CC50 (SR) | IC50 (SK-MEL-28) | CC50 (SK-MEL-28) | IC50 (HCT-15) | CC50 (HCT-15) | IC50 (UACC-62) | CC50 (UACC-62) | IC50 (MCF7) | CC50 (MCF7) | IC50 (HS 578T) | CC50 (HS 578T) | IC50 (HL-60(TB)) | CC50 (HL-60(TB)) | also measured |
| --- | --- | --- | --- | --- | --- | --- | --- | --- | --- | --- | --- | --- | --- | --- | --- | --- | --- | --- | --- | --- | --- |
| COc1cc(OC)c(S(N)(=O)=O)cc1C(=O)C=Cc1ccccc1 [Compound 17a, 5-Cinnamoyl-2,4-dimethoxybenzenesulfonamide] | 15.5 µM | > 100 µM | 6.99 µM | 44.8 µM | 10.7 µM | 47.6 µM | 1.73 µM | > 100 µM | 12.5 µM | 51 µM | 3.55 µM | 57.5 µM | 12.2 µM | 59.4 µM | 0.97 µM | 62.5 µM | 5.89 µM | > 100 µM | 2.27 µM | > 100 µM | inhibition at 10 µM (leukemia cell lines): 70.8 to 94.8%; IC50 (OVCAR-8): 11.3 µM; CC50 (OVCAR-8): 51.3 µM; IC50 (A498): 16.9 µM; CC50 (A498): 55.8 µM; inhibition at 10 µM (breast cancer cell lines): 73.5 to 100%; IC50 (PC-3): 5.95 µM; CC50 (PC-3): 50.4 µM; IC50 (TK-10): 12.9 µM; CC50 (TK-10): 51.5 µM; IC50 (HCC-2998): 12.5 µM; CC50 (HCC-2998): 54.7 µM; IC50 [1]: 0.34 to 17.6 µM; inhibition at 10 µM [1, 2]: 71.8%; IC50 (SK-OV-3): 14.4 µM; CC50 (SK-OV-3): 52.9 µM |
| COc1cc(OC)c(S(N)(=O)=O)cc1C(=O)/C=C/c1ccc(Cl)cc1 [Compound 17b, (E)-5-(3-(4-Chlorophenyl)acryloyl)-2,4-dimethoxybenzenesulfonamide] | 3.97 µM | > 100 µM | 3.16 µM | 33.4 µM | 2.31 µM | 38.7 µM | 2.11 µM | > 100 µM | 3.03 µM | 33.4 µM | 1.46 µM | > 100 µM | 2.67 µM | 40.8 µM | 4.11 µM | 40.3 µM | > 100 µM | > 100 µM | 1.91 µM | > 100 µM | lethality (SR; single dose 10 μM): 19.50%; lethality (HCT-15; HCT-15, single dose 10 μM): 41.55%; inhibition at 10 µM (leukemia cell lines): 92.8 to 100%; IC50 (OVCAR-8): 3.01 µM; CC50 (OVCAR-8): > 100 µM; IC50 (A498): 18.6 µM; CC50 (A498): 62.2 µM; inhibition at 10 µM (breast cancer cell lines): 73.9 to 100%; IC50 (PC-3): 1.6 µM; CC50 (PC-3): 20.8 µM; IC50 (TK-10): 2.91 µM; CC50 (TK-10): 33.4 µM; IC50 (HCC-2998): 2.41 µM; CC50 (HCC-2998): 22.3 µM; IC50 [1]: 0.73 to 18.6 µM; inhibition at 10 µM [1, 2]: 94.1%; IC50 (SK-OV-3): 2.8 µM; CC50 (SK-OV-3): 35.4 µM |
| COc1cc(OC)c(S(N)(=O)=O)cc1C(=O)/C=C/c1ccc(C)cc1 [Compound 17c, (E)-2,4-Dimethoxy-5-(3-(p-tolyl)acryloyl)benzenesulfonamide] | 5.25 µM | > 100 µM | 3.86 µM | 37.3 µM | 2.87 µM | 34.7 µM | 2.26 µM | > 100 µM | 4.09 µM | 40.8 µM | 2.56 µM | 74.8 µM | 3.63 µM | 46.2 µM | 2.48 µM | 54.1 µM | 3.5 µM | > 100 µM | 2.52 µM | > 100 µM | inhibition at 10 µM (leukemia cell lines): 78.9 to 94.3%; IC50 (OVCAR-8): 2.17 µM; CC50 (OVCAR-8): 15.8 µM; IC50 (A498): 16.2 µM; CC50 (A498): 58.1 µM; inhibition at 10 µM (breast cancer cell lines): 78.7 to 100%; IC50 (PC-3): 3.42 µM; CC50 (PC-3): 55.1 µM; IC50 (TK-10): 3.41 µM; CC50 (TK-10): 39.6 µM; IC50 (HCC-2998): 2.39 µM; CC50 (HCC-2998): 22.3 µM; IC50 [1]: 0.54 to 11.5 µM; inhibition at 10 µM [1, 2]: 81.2%; IC50 (SK-OV-3): 3.18 µM; CC50 (SK-OV-3): 32.5 µM |
| COc1cc(OC)c(S(=O)(=O)N(CCCl)CCCl)cc1C(=O)/C=C/c1cc(OC)c(OC)c(OC)c1 [Compound 18e, (E)-N,N-bis(2-Chloroethyl)-2,4-dimethoxy-5-(3-(3,4,5-trimethoxyphenyl)acryloyl)benzenesulfonamide] | > 100 µM | > 100 µM | 6.16 µM | > 100 µM | 3 µM | > 100 µM | 0.99 µM | > 100 µM | 3.54 µM | 6.88 µM | 3.98 µM | > 100 µM | 4.94 µM | > 100 µM | 4.36 µM | 35.5 µM | > 100 µM | > 100 µM | 1.6 µM | > 100 µM | IC50 (leukemia cell lines; read-out: IC50 (GI50), range over leukemia panel): 0.99 to 2.52 µM; GI% (HS 578T; HS 578T, single dose 10 μM): 21.70%; IC50 (OVCAR-8): > 100 µM; CC50 (OVCAR-8): > 100 µM; IC50 (A498): 7.23 µM; CC50 (A498): 65.5 µM; IC50 (PC-3): > 100 µM; CC50 (PC-3): > 100 µM; IC50 (TK-10): 75 µM; CC50 (TK-10): > 100 µM; lethality (HCC-2998; HCC-2998, single dose 10 μM): 91.08%; IC50 (HCC-2998): 3.54 µM; CC50 (HCC-2998): 6.35 µM; mean lethality ([1]; single dose 10 μM, mean over 60 cell lines): 25.48%; Mean growth inhibition (GI) percentage [1, 2]: 100.00% and 125.48%; IC50 (SK-OV-3): 13 µM; CC50 (SK-OV-3): > 100 µM |

— PMC9604400, “Synthesis, Anticancer and Antitubercular Properties of New Chalcones and Their Nitrogen-Containing Five-Membered Heterocyclic Hybrids Bearing Sulfonamide Moiety” (International Journal of Molecular Sciences, 2022)
